Experimental data: BigSolDB 2.1

SMILES: FC(F)(F)c1ccc(N=C2SCC3CCCN2C3)cc1 (stereo not given)
- solubility (mole fraction) (in n-hexane, 293.15 K): 0.000248
- solubility (mole fraction) (in n-hexane, 298.15 K): 0.000286
- solubility (mole fraction) (in n-hexane, 303.15 K): 0.000339
- solubility (mole fraction) (in n-hexane, 310.15 K): 0.000402
- solubility (mole fraction) (in n-hexane, 315.15 K): 0.00046
- solubility (mole fraction) (in n-octanol, 293.15 K): 0.0118
- solubility (mole fraction) (in n-octanol, 298.15 K): 0.0132
- solubility (mole fraction) (in n-octanol, 303.15 K): 0.0146
- solubility (mole fraction) (in n-octanol, 310.15 K): 0.0171
- solubility (mole fraction) (in n-octanol, 315.15 K): 0.0189

SMILES: CC(C)c1ccc(N=C2SCC3CCCN2C3)cc1 (stereo not given)
- solubility (mole fraction) (in n-hexane, 293.15 K): 0.00135
- solubility (mole fraction) (in n-hexane, 298.15 K): 0.00158
- solubility (mole fraction) (in n-hexane, 303.15 K): 0.00195
- solubility (mole fraction) (in n-hexane, 310.15 K): 0.00246
- solubility (mole fraction) (in n-hexane, 315.15 K): 0.00288
- solubility (mole fraction) (in n-octanol, 293.15 K): 0.143
- solubility (mole fraction) (in n-octanol, 298.15 K): 0.154
- solubility (mole fraction) (in n-octanol, 303.15 K): 0.164
- solubility (mole fraction) (in n-octanol, 310.15 K): 0.182
- solubility (mole fraction) (in n-octanol, 315.15 K): 0.194

SMILES: Cc1ccc(N=C2SCC3CCCN2C3)cc1Cl (stereo not given)
- solubility (mole fraction) (in n-hexane, 293.15 K): 7.1e-05
- solubility (mole fraction) (in n-hexane, 298.15 K): 8.71e-05
- solubility (mole fraction) (in n-hexane, 303.15 K): 0.000106
- solubility (mole fraction) (in n-hexane, 310.15 K): 0.000134
- solubility (mole fraction) (in n-hexane, 315.15 K): 0.000161
- solubility (mole fraction) (in n-octanol, 293.15 K): 0.00305
- solubility (mole fraction) (in n-octanol, 298.15 K): 0.00377
- solubility (mole fraction) (in n-octanol, 303.15 K): 0.00454
- solubility (mole fraction) (in n-octanol, 310.15 K): 0.00605
- solubility (mole fraction) (in n-octanol, 315.15 K): 0.00736

SMILES: CC(=O)c1ccc(N=C2SCC3CCCN2C3)cc1 (stereo not given)
- solubility (mole fraction) (in n-hexane, 293.15 K): 0.000144
- solubility (mole fraction) (in n-hexane, 298.15 K): 0.000176
- solubility (mole fraction) (in n-hexane, 303.15 K): 0.000215
- solubility (mole fraction) (in n-hexane, 310.15 K): 0.00028
- solubility (mole fraction) (in n-hexane, 315.15 K): 0.000344
- solubility (mole fraction) (in n-octanol, 293.15 K): 0.0075
- solubility (mole fraction) (in n-octanol, 298.15 K): 0.0093
- solubility (mole fraction) (in n-octanol, 303.15 K): 0.0118
- solubility (mole fraction) (in n-octanol, 310.15 K): 0.0156
- solubility (mole fraction) (in n-octanol, 315.15 K): 0.0202

SMILES: N#Cc1ccc(N=C2SCC3CCCN2C3)cc1 (stereo not given)
- solubility (mole fraction) (in n-hexane, 293.15 K): 0.000223
- solubility (mole fraction) (in n-hexane, 298.15 K): 0.000271
- solubility (mole fraction) (in n-hexane, 303.15 K): 0.000337
- solubility (mole fraction) (in n-hexane, 310.15 K): 0.000422
- solubility (mole fraction) (in n-hexane, 315.15 K): 0.000523
- solubility (mole fraction) (in n-octanol, 293.15 K): 0.0087
- solubility (mole fraction) (in n-octanol, 298.15 K): 0.0107
- solubility (mole fraction) (in n-octanol, 303.15 K): 0.0131
- solubility (mole fraction) (in n-octanol, 310.15 K): 0.0166
- solubility (mole fraction) (in n-octanol, 315.15 K): 0.0202

SMILES: Fc1ccc(N=C2SCC3CCCN2C3)cc1 (stereo not given)
- solubility (mole fraction) (in n-hexane, 293.15 K): 0.0015
- solubility (mole fraction) (in n-hexane, 298.15 K): 0.00187
- solubility (mole fraction) (in n-hexane, 303.15 K): 0.00224
- solubility (mole fraction) (in n-hexane, 310.15 K): 0.00294
- solubility (mole fraction) (in n-hexane, 315.15 K): 0.00359
- solubility (mole fraction) (in n-octanol, 293.15 K): 0.0245
- solubility (mole fraction) (in n-octanol, 298.15 K): 0.0296
- solubility (mole fraction) (in n-octanol, 303.15 K): 0.0354
- solubility (mole fraction) (in n-octanol, 310.15 K): 0.0469
- solubility (mole fraction) (in n-octanol, 315.15 K): 0.0567

SMILES: CCc1ccc(N=C2SCC3CCCN2C3)cc1 (stereo not given)
- solubility (mole fraction) (in n-hexane, 293.15 K): 0.000225
- solubility (mole fraction) (in n-hexane, 298.15 K): 0.000289
- solubility (mole fraction) (in n-hexane, 303.15 K): 0.000382
- solubility (mole fraction) (in n-hexane, 310.15 K): 0.000537
- solubility (mole fraction) (in n-hexane, 315.15 K): 0.000673
- solubility (mole fraction) (in n-octanol, 293.15 K): 0.0124
- solubility (mole fraction) (in n-octanol, 298.15 K): 0.0139
- solubility (mole fraction) (in n-octanol, 303.15 K): 0.0163
- solubility (mole fraction) (in n-octanol, 310.15 K): 0.0194
- solubility (mole fraction) (in n-octanol, 315.15 K): 0.0224

SMILES: Cc1ccc(N=C2SCC3CCCN2C3)cc1 (stereo not given)
- solubility (mole fraction) (in n-hexane, 293.15 K): 0.0033
- solubility (mole fraction) (in n-hexane, 298.15 K): 0.00465
- solubility (mole fraction) (in n-hexane, 303.15 K): 0.00654
- solubility (mole fraction) (in n-hexane, 310.15 K): 0.0104
- solubility (mole fraction) (in n-hexane, 315.15 K): 0.0135
- solubility (mole fraction) (in n-octanol, 293.15 K): 0.145
- solubility (mole fraction) (in n-octanol, 298.15 K): 0.157
- solubility (mole fraction) (in n-octanol, 303.15 K): 0.171
- solubility (mole fraction) (in n-octanol, 310.15 K): 0.193
- solubility (mole fraction) (in n-octanol, 315.15 K): 0.209
